Counter-ions that a name gives are not always drawn.
Legend:
intracerebral RG2 tumors = assay: In vivo BTB permeability (Ki by quantitative autoradiography) in RG2 tumor-bearing rats; parameters: species or system rat; details: i.c. MS 30 μg/kg/min, RG2 tumor
Experimental: All animal experiments were conducted in accordance with policies set by the Institutional Animal Care and Usage Committee and NIH guidelines. A rat syngeneic tumor model was prepared using female Wistar rats and a human-tumor xenograft model in athymic nude rats weighing 180-200 g were prepared for the BBB/BTB permeability studies. […] Rat glioma (RG2) cells (1×10^5) in 5 μl of medium with 1.2% methylcellulose were injected into the basal ganglia of Wistar rats, while nude rats were injected with glioblastoma multiforme (GBM) primary cells (5×10^5). The coordinates were 5-mm lateral to the bregma and 4.5 mm deep to the basal ganglia. […] In regional permeability studies, 5 min after the start of the intracarotid (i.c.) infusion, 100 μCi/kg of [^14C] […]
The Ki was determined for radiotracers, [^14C]-AIB, [^14C]-carboplatin, and [^14C] dextran in the tumor core, tumor-adjacent brain tissue, and contralateral brain tissue using the quantitative autoradiographic (QAR) method as described earlier (Ningarsj, N. S., Rao, M., Hashizume, K., Asotra, K., and Black, K. L. Regulation of blood-brain tumor barrier permeability by calcium-activated potassium channels J. Pharmacol. Exp. Ther., 301:838-851, 2002; Ningaraj, N. S., Rao, M., and Black, K. L. Calcium-dependent potassium channels as a target protein ir. the modulation of blood-brain humor barrier.

[1] = Physiological measurements during BTB permeability determination; type: in vivo, rat
Experimental: All animal experiments were conducted in accordance with policies set by the Institutional Animal Care and Usage Committee and NIH guidelines. A rat syngeneic tumor model was prepared using female Wistar rats and a human-tumor xenograft model in athymic nude rats weighing 180-200 g were prepared for the BBB/BTB permeability studies. Although brain tumor blood vessel development is rapid in rats compared to humans, this variable should not affect the findings or conclusions because the study analyzes the response of blood vessels, regardless of how rapidly they developed, to vasomodulators. The optimum number of tumor cells and incubation period for in vivo tumor growth was determined in separate experiments. Rat glioma (RG2) cells (1×10^5) in 5 μl of medium with 1.2% methylcellulose were injected into the basal ganglia of Wistar rats, while nude rats were injected with glioblastoma multiforme (GBM) primary cells (5×10^5). The coordinates were 5-mm lateral to the bregma and 4.5 mm deep to the basal ganglia. Seven days (for RG2 tumor) and 3-4 weeks (for GBM) after tumor implantation, the rats were prepared for permeability study as described by (Ningarsj, N. S., Rao, M., Hashizume, K., Asotra, K., and Black, K. L. Regulation of blood-brain tumor barrier permeability by calcium-activated potassium channels J. Pharmacol. Exp. Ther., 301:838-851, 2002; Ningaraj, N. S., Rao, M., and Black, K. L. Calcium-dependent potassium channels as a target protein ir. the modulation of blood-brain humor barrier. Drug News and Perspectives, 16:1-8, 2003). In regional permeability studies, 5 min after the start of the intracarotid (i.c.) infusion, 100 μCi/kg of [^14C] AIB, [^14C] dextran or [^14C] carboplatin to 1 ml phosphate buffer saline (PBS) was injected as an intravenous (i.v.) bolus within a 15 second period. To determine whether the infusion of vasomodulators would affect cerebral blood flow (CBF) at the tumor area, Cerebral Laser-Doppler Flowmetry (LDF) using a Laser-Doppler (DRT4, Moore Instruments Ltd., England) equipped with a DP3 optical (1 mm diameter) probe during 15 min i.c. infusion of vasomodulators in some rats (n=3/group) was used as described in Ningarsj, N. S., Rao, M., Hashizume, K., Asotra, K., and Black, K. L. Regulation of blood-brain tumor barrier permeability by calcium-activated potassium channels J. Pharmacol. Exp. Ther., 301:838-851, 2002; and Ningaraj, N. S., Rao, M., and Black, K. L. Calcium-dependent potassium channels as a target protein ir. the modulation of blood-brain humor barrier. Drug News and Perspectives, 16:1-8, 2003. Rats with abnormal CBF, blood gases or blood pressure were excluded from the study.
The physiological parameters were determined either before or during vasomodulator infusion. The values are mean±SD of n>4 rats, except for cerebral blood flowmetry (CBF) where three representative rats per group were used. pH is arterial pH; PaO2 is arterial oxygen; PaCO2 is arterial carbon dioxide; and MAP is mean arterial blood pressure.

KATP channels = assay: Membrane potential assay of KATP channel activity; type: cell-based, human; details: RBEC, HBMVEC, RG2 and GBM cells
Experimental: Functional activities of putative KATP channels in HBMVEC and GBM cells were measured by detecting changes in voltage across the cell membrane as described earlier (Ningarsj, N. S., Rao, M., Hashizume, K., Asotra, K., and Black, K. L. Regulation of blood-brain tumor barrier permeability by calcium-activated potassium channels J. Pharmacol. Exp. Ther., 301:838-851, 2002). A membrane potential assay kit (Molecular Devices, Sunnyvale, Calif.) provided a fast, simple and consistent mix-and-read procedure. In brief, HBMVEC and GBM cells obtained from cell passages 2-5 was suspended in 5 ml of growth medium. In two separate experiments, the cell density was adjusted to 1×10^3 cells/well and coated in sterile, clear bottom, blank 96-well plates (Corning, Inc., Acton, Mass.), pre-coated with poly L-Lysine, and allowed to achieve a monolayer within 24 h. The monolayer cells were incubated with the membrane potential assay kit reagents for 30 min and read directly by FLEXstation. The anionic pchemiometric dye that traverses between cells and the extracellular solution in a membrane potential-dependent manner serves as an indicator of vasomodulator-induced voltage changes across the cell membrane. […] Additionally, the effects of the optimum dose (10 μM) of MS and glibenclamide (100 nM) on KATP channels activity in HBMVEC and GBM cells were determined.

[2] = tested on: metastatic breast brain tumors; assay: [14C]AIB uptake in metastatic breast brain tumor model; type: in vivo, rat; details: intravenous co-injection
[3] = tested on: intracranial human glial tumors; assay: Survival study, nude mice with intracranial human glial tumors; type: in vivo, mouse; details: i.v., three consecutive doses for three days
Experimental: GBM-xenograft rat and mouse models were developed by intracranially implanting primary GBM cells isolated from patient brain tumor tissue. […] To investigate whether MS administration by intracarotid (i.c.) and intravenous (i.v.) routes, increases BTB permeability to different tracers, and enhances delivery to brain tumor, permeability studies were performed.
Nude mice were intracranially implanted with cells. The tumor was allowed to grow for 7 days before treatment was initiated.

[4] = tested on: RG2 tumor capillary endothelium; assay: Transmission electron microscopy of vesicular transport in tumor capillary endothelium; type: in vivo, rat; details: i.c. MS 30 μg/kg/min 15 min
Description: S., Rao, […]., and Black, K. L. Regulation of blood-brain tumor barrier permeability by calcium-activated potassium channels J. Pharmacol. Exp. Ther., 301:838-851, 2002). […] S., Rao, […]., and Black, K. L. Regulation of blood-brain tumor barrier permeability by calcium-activated potassium channels J. Pharmacol. Exp. Ther., 301:838-851, 2002). Briefly, micrographs were placed on a digitizing screen and structural features measued using Scan […]TM, a computer-assisted, image analysis system (Jandel Scientific, Corte Madera, Calif.). Abluminal and luminal circumferences, areas of endothelial cytoplasm excluding nuclei and vacuoles, and mean thickness of endothelial cytoplasm were measured and compared with those in the control group. The mean thickness of endothelium was calculated by subtraction of the luminal radius from the abluminal radius, which was obtained from the areas encircled by the luminal and abluminal circumferences, respectively. The proportion of total vesicular area to the cytoplasmic area was expressed as a percentage in order to derive another parameter to characterize vesicular transport.

[5] = before or during vasomodulator infusion, mean±SD

Nc1cc(N2CCCCC2)nc(N)[n+]1OS(=O)(=O)[O-] [MS, minoxidil sulfate]
Delivery of [14C]-labeled AIB, dextran and carboplatin across the BTB (intracerebral RG2 tumors): significantly enhanced delivery
PaCO2 [1, 5]: 45 ± 1 mm Hg
PaO2 [1, 5]: 90 ± 5 mm Hg
pH (arterial pH) [1, 5]: 7.38 ± 0.01
Effect on CBF ([1]; i.c. 30 μg/kg/min, laser Doppler): not to significantly affect CBF
CBF (% change vs. vehicle) ([1]; laser-Doppler flowmetry, three rats per group): 8 ± 3 % change vs. vehicle
Membrane potential dye fluorescence intensity (KATP channels): dose-dependent decrease
Level of [14C]AIB in brain tumor tissue versus saline [2]: approximately three times as great
Level of [14C]AIB surrounding the tumor and in contralateral brain versus vehicle [2]: does not differ significantly
Mean survival [3]: 27.09 ± 8.7 days
Endothelial tight junction indices in tumor capillaries [4]: did not alter the endothelial tight junction indices
Vesicular density in tumor capillary endothelium [4]: significantly increased vesicular density

Reference: patent US20050089473A1, “Potassium channel mediated delivery of agents through the blood-brain barrier” (Cedars-Sinai Medical Center, priority 2003, published 2005)
